Laboratory results as given in paper PMC7689250, “Synthetic Peptide Libraries Designed From a Minimal Alpha-Helical Domain of AS-48-Bacteriocin Homologs Exhibit Potent Antibacterial Activity” (Frontiers in Microbiology, 2020).
Where two headings read alike, the source gives them in different places. Residues, ends and D or L forms follow the SMILES beside them.

Tests used:
[1] = test system: GFP-expressing E. coli strain BL21; assay: Live imaging of GFP leakage; type: cell-based, Escherichia coli; conditions: 16 μM peptide, 8 h, 37°C, images every 10 min
Method: To observe bacterial cell death in the presence of peptide in real time, fluorescence microscopy was employed using GFP-expressing E. coli strain BL21. MIC assays were conducted against BL21-GFP to determine the peptide concentration used for microscopy experiments. The peptide was suspended in PBS and added to diluted bacterial cells. GFP-expressing E. coli in the presence of peptide were imaged on the Eclipse Ti-E inverted microscope (Nikon) using GFP and DIC channels for 8 h at 37°C, with images taken every 10 min ([Fields et al., 2020]). Syn-xiamencin-2, a peptide with no detectable antimicrobial activity below 128 μM was also evaluated as a negative peptide candidate control.

[2] = test system: S. pyogenes (M1); type: cell-based, Streptococcus pyogenes; conditions: for MBC: M1; for MIC: M1, 16 h
Method in brief: (§1)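 MIC in Mueller-Hinton broth with 1 × 10^6 CFU/mL bacteria, overnight cultures grown first in LB (E. coli, P. aeruginosa, S. aureus) or Todd-Hewitt (S. pyogenes); growth read as OD 600. Library members screened at half the parent peptide MIC; MBC as lowest concentration giving no colonies after plating MIC wells, 37°C overnight.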

[3] = test system: S. aureus (USA300); type: cell-based, Staphylococcus aureus; conditions: for MBC: USA300; for MIC: USA300, 16 h
Method in brief: as §1

[4] = test system: E. coli (BL21); type: cell-based, Escherichia coli
Method in brief: as §1

[5] = test system: sheep erythrocytes; type: cell-based; conditions: red cells of sheep, 1 h
Method in brief: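 Washed defibrinated sheep blood, diluted 1:25 in PBS, incubated 1 h at 37 °C with peptide at the MIC-assay concentrations (sample:blood 1:10). Haemoglobin release read as supernatant absorbance at 450 nm; percent haemolysis normalised to PBS and 10% Triton controls.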

[6] = test system: P. aeruginosa (PAO1); type: cell-based, Pseudomonas aeruginosa; conditions: for MBC: PAO1
Method in brief: as §1

[7] = test system: human keratinocyte cell line (HaCaT); assay: HaCaT cytotoxicity, ethidium homodimer assay; type: cell-based; conditions: 16 h, 37°C, DMEM + 10% FBS, normalised to saponin, triplicate
Method: To assess cytotoxicity of optimized peptides in mammalian cells, an immortalized human keratinocyte cell line (HaCaT) was used. Cells were grown to 80% confluency in 24-well culture dishes and washed with PBS (Thermo Fisher). […] After incubation, the cells were washed with sterile PBS, followed by a covered incubation with 4 μM ethidium homodimer (Molecular Probes) for 30 min at room temperature. Fluorescence was measured using the Synergy H1 Microplate Reader set to 528 nm excitation, 617 nm emission, and a cutoff value of 590 nm. Saponin (0.1% wt/vol, Sigma) was added to each well followed by a covered incubation for 20 min at room temperature, followed by another measurement on the Synergy H1 Microplate Reader using the same settings to normalize readings to the number of cells per well and determine the percent cytotoxicity.

[8] = E. coli BL21, running text b43, unit printed nm

Compound	GFP leakage / change in fluorescence [1]	MBC [2]	MIC [2]	MBC [3]	MIC [3]	MBC ([4]; BL21)	MIC ([4]; BL21, 16 h)	Percent Hemolysis [5]	MIC ([6]; P. aeruginosa PAO1, broth microdilution, Mueller-Hinton broth, 1 × 10^6 CFU/mL, 16 h, OD600, triplicate)	MBC [6]	concentration at which peptide is cytotoxic [7]	MIC ([6]; PAO1, 16 h)	MIC ([4]; BL21)	MBC [4, 8]	MIC [4, 8]	MIC ([4]; E. coli BL21)
CC[C@H](C)[C@H](NC(=O)[C@H](CCCNC(=N)N)NC(=O)[C@H](CCC(N)=O)NC(=O)[C@H](Cc1c[nH]c2ccccc12)NC(=O)CNC(=O)[C@H](C)N)C(=O)N[C@@H](CCCCN)C(=O)N[C@@H](C)C(=O)N[C@@H](Cc1ccc(O)cc1)C(=O)N[C@@H](CC(C)C)C(=O)N[C@@H](CCCNC(=N)N)C(=O)N[C@@H](CCCNC(=N)N)C(=O)N[C@@H](CCC(=O)O)C(=O)N[C@H](C(=O)N[C@@H](CCCNC(=N)N)C(=O)N[C@@H](CCCCN)C(=O)N[C@@H](CCCNC(=N)N)C(=O)NCC(=O)N[C@@H](CCCNC(=N)N)C(=O)N[C@@H](CCCCN)C(=O)N[C@@H](C)C(=O)N[C@H](C(=O)N[C@H](C(=O)N[C@@H](C)C(=O)N[C@@H](Cc1c[nH]c2ccccc12)C(=O)O)[C@@H](C)CC)C(C)C)[C@@H](C)CC [Syn-sordellicin-43] (H-AGWQRIKAYLRREIRKRGRKAVIAW-OH; N-terminus and C-terminus assumed)	significant decrease in fluorescence	4 µM	2 µM	32 µM	32 µM	1 µM	1 µM	11.2%	2 µM	4 µM	–	–	–	–	–	–
CC[C@H](C)[C@H](NC(=O)[C@H](CCCNC(=N)N)NC(=O)[C@H](CCC(N)=O)NC(=O)[C@@H](NC(=O)[C@H](Cc1c[nH]c2ccccc12)NC(=O)[C@H](C)N)[C@@H](C)O)C(=O)N[C@@H](CCCCN)C(=O)N[C@@H](C)C(=O)N[C@@H](Cc1ccc(O)cc1)C(=O)N[C@@H](CC(C)C)C(=O)N[C@@H](CCCNC(=N)N)C(=O)N[C@@H](CCCNC(=N)N)C(=O)N[C@@H](CCC(=O)O)C(=O)N[C@H](C(=O)N[C@@H](CCCNC(=N)N)C(=O)N[C@@H](CCCCN)C(=O)N[C@@H](CCCNC(=N)N)C(=O)NCC(=O)N[C@@H](CCCNC(=N)N)C(=O)N[C@@H](CCCCN)C(=O)N[C@@H](C)C(=O)N[C@H](C(=O)N[C@H](C(=O)N[C@@H](C)C(=O)N[C@@H](Cc1c[nH]c2ccccc12)C(=O)O)[C@@H](C)CC)C(C)C)[C@@H](C)CC [Syn-sordellicin-19] (H-AWTQRIKAYLRREIRKRGRKAVIAW-OH; N-terminus and C-terminus assumed)	–	2 µM	2 µM	>128 µM	>128 µM	2 µM	2 µM	–	–	16 µM	≥ 64 µM	8 µM	–	–	–	–
CC[C@H](C)[C@H](NC(=O)[C@H](CCCNC(=N)N)NC(=O)CNC(=O)[C@@H](NC(=O)[C@H](CCCCN)NC(=O)[C@H](CCCNC(=N)N)NC(=O)[C@@H](NC(=O)[C@H](Cc1ccc(O)cc1)NC(=O)[C@H](CCCNC(=N)N)NC(=O)[C@H](CCCNC(=N)N)NC(=O)[C@H](CC(C)C)NC(=O)[C@H](CCC(=O)O)NC(=O)[C@H](CCCCN)NC(=O)[C@H](C)NC(=O)[C@@H](NC(=O)[C@H](CCCNC(=N)N)NC(=O)[C@H](CC(N)=O)NC(=O)[C@@H](NC(=O)CNC(=O)[C@H](C)N)[C@@H](C)O)[C@@H](C)CC)[C@@H](C)CC)C(C)C)C(=O)N[C@@H](C)C(=O)N[C@@H](CCCNC(=N)N)C(=O)N[C@@H](CCCCN)C(=O)N[C@@H](CCCCN)C(=O)N[C@@H](Cc1c[nH]c2ccccc12)C(=O)O [Syn-sordellicin-88] (H-AGTNRIAKELRRYIRKVGRIARKKW-OH; N-terminus and C-terminus assumed)	–	1 µM	1 µM	64 µM	64 µM	1 µM	1 µM	11.7%	–	16 µM	≥ 64 µM	16 µM	–	–	–	–
CC[C@H](C)[C@H](NC(=O)[C@H](CCCCN)NC(=O)[C@H](CCCCN)NC(=O)CNC(=O)[C@H](CCC(=O)O)NC(=O)[C@H](CCC(N)=O)NC(=O)[C@@H](NC(=O)[C@@H](NC(=O)[C@H](CCCCN)NC(=O)[C@H](CCCCN)NC(=O)[C@H](CC(C)C)NC(=O)[C@H](CCCNC(=N)N)NC(=O)[C@H](CCC(N)=O)NC(=O)[C@H](Cc1ccccc1)NC(=O)[C@@H](NC(=O)[C@H](CCCCN)NC(=O)[C@H](CCC(=O)O)NC(=O)[C@@H](NC(=O)[C@H](Cc1c[nH]c2ccccc12)NC(=O)[C@H](C)N)[C@@H](C)O)[C@@H](C)CC)[C@@H](C)O)[C@@H](C)CC)C(=O)N[C@@H](C)C(=O)N[C@@H](CCCCN)C(=O)N[C@@H](CCCNC(=N)N)C(=O)N[C@@H](C)C(=O)N[C@@H](Cc1c[nH]c2ccccc12)C(=O)O [Syn-larvacin-39] (H-AWTEKIFQRLKKTIQEGKKIAKRAW-OH; N-terminus and C-terminus assumed)	significant decrease in fluorescence	4 µM	2 µM	4 µM	1 µM	–	<0.0156 µM	14.4%	–	64 µM	–	16 µM	0.0156 µM	below 15.6 nM	below 15.6 nM	–
CC[C@H](C)[C@H](NC(=O)[C@H](CCC(=O)O)NC(=O)[C@H](CCCNC(=N)N)NC(=O)[C@H](CCCNC(=N)N)NC(=O)[C@H](CC(C)C)NC(=O)[C@H](Cc1ccc(O)cc1)NC(=O)[C@H](CCCCN)NC(=O)[C@H](C)NC(=O)[C@@H](NC(=O)[C@@H](NC(=O)[C@H](CCC(N)=O)NC(=O)[C@H](CCCNC(=N)N)NC(=O)CNC(=O)[C@H](C)N)[C@@H](C)O)[C@@H](C)CC)C(=O)N[C@@H](CCCNC(=N)N)C(=O)N[C@@H](CCCCN)C(=O)N[C@@H](CCCNC(=N)N)C(=O)NCC(=O)N[C@@H](CCCNC(=N)N)C(=O)N[C@@H](CCCCN)C(=O)N[C@@H](Cc1c[nH]c2ccccc12)C(=O)N[C@H](C(=O)N[C@H](C(=O)N[C@@H](C)C(=O)N[C@@H](Cc1c[nH]c2ccccc12)C(=O)O)[C@@H](C)CC)C(C)C [Syn-sordellicin-50] (H-AGRQTIAKYLRREIRKRGRKWVIAW-OH; N-terminus and C-terminus assumed)	–	2 µM	2 µM	>128 µM	>128 µM	1 µM	1 µM	11.5%	–	16 µM	–	8 µM	–	–	–	–
CC[C@H](C)[C@H](NC(=O)[C@H](CCCNC(=N)N)NC(=O)[C@H](CC(N)=O)NC(=O)[C@@H](NC(=O)CNC(=O)[C@H](C)N)[C@@H](C)O)C(=O)N[C@@H](C)C(=O)N[C@@H](CCCCN)C(=O)N[C@@H](CCC(=O)O)C(=O)N[C@@H](CC(C)C)C(=O)N[C@@H](CCCNC(=N)N)C(=O)N[C@@H](CCCNC(=N)N)C(=O)N[C@@H](Cc1ccc(O)cc1)C(=O)N[C@H](C(=O)N[C@@H](CCCNC(=N)N)C(=O)N[C@@H](CCCCN)C(=O)N[C@H](C(=O)NCC(=O)N[C@@H](CCCNC(=N)N)C(=O)N[C@H](C(=O)N[C@@H](CCCCN)C(=O)N[C@@H](CCCNC(=N)N)C(=O)N[C@@H](CCCCN)C(=O)N[C@@H](C)C(=O)N[C@@H](Cc1c[nH]c2ccccc12)C(=O)O)[C@@H](C)CC)C(C)C)[C@@H](C)CC [Syn-sordellicin-80] (H-AGTNRIAKELRRYIRKVGRIKRKAW-OH; N-terminus and C-terminus assumed)	–	2 µM	2 µM	64 µM	64 µM	0.5 µM	–	11.3%	–	16 µM	–	16 µM	–	–	–	0.25 µM
